The text below walks through data of patent publication US6342503B1, “1N-alkyl-n-arylpyrimidinamines and derivatives thereof” (DuPont Pharmaceuticals Company, priority 1993, dated 2002).

Where a name gives a salt, the structure may show the parent alone.

In one data set the target is T1, CRF receptor (Rattus norvegicus, UniProt P35353).
T1 construct: 100 μl of membrane suspension as prepared above to give a total reaction volume of 300 μl; from tissue; host or cells: rat cerebral cortex membrane homogenate
T1 sequence (P35353 24-415): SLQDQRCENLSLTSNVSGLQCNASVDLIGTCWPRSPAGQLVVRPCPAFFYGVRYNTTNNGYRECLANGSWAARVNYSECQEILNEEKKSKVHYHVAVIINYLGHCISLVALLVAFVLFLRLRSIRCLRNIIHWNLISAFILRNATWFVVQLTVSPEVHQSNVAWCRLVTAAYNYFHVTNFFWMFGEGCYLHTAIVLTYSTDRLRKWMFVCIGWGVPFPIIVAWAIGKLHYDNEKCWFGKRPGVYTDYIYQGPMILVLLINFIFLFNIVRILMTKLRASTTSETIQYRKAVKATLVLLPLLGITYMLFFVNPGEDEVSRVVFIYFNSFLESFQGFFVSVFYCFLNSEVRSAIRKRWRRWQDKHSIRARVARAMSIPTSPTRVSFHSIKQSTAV
Nature of the data set: In vitro CRF receptor binding assay (competition with [125I] ovine CRF, rat cortex membranes). The conditions noted are these: read-out: Inhibition Ki.

Take `C=CCN(c1nc(C)cc(N2CCOCC2)n1)c1ccc(C(C)C)cc1I` [compound 165, N-(2-iodo4-(1-methylethyl)phenyl)-N-allyl4-morpholino-6-methyl-2-pyrimidinamine]: the melting point was in the range of 109 to 112 °C. Also, on CRF receptor, the Ki is below 500 nM.

`CCN(c1nc(C)cc(C(=O)c2ccco2)n1)c1ccc(C(C)C)cc1Br` [compound 288] gave a melting point of 136 to 138 °C. At CRF receptor, the inhibitory constant (Ki) was below 500 nM.

The compound `COc1cc(Cl)c(Nc2nc(C)cc(C)n2)c(OC)c1` [compound 145] had a melting point of 170 to 173 °C. In addition, on CRF receptor, the Ki was in the range of 2000 to 10000 nM.

`Cc1cc(Cl)nc2c1c(C#N)cn2-c1ccc(C(C)C)cc1Br` [Example 262] showed a melting point of 123.8 °C. Moreover, the Ki on CRF receptor was below 500 nM.

Take `CCN(c1nc(C)cc(C)n1)c1ccc(NC)cc1SC` [compound 190, N-(4-(N-methylamino)-2-methylthiophenyl)-N-ethyl-4,6-dimethyl-2-pyrimidinamine]: the melting point lay in the range of 141 to 142 °C. Besides, the Ki at CRF receptor is below 500 nM.

With `CCC(=O)c1ccc(N(CC)c2nc(C)cc(C)n2)c(SC)c1` [compound 188, N-(4-propionyl-2-methylthiophenyl)-N-ethyl-4,6-dimethyl-2-pyrimidinamine], the melting point lay in the range of 139 to 141 °C. Besides, the Ki on CRF receptor was below 500 nM.

`Cc1cc(Cl)c2c(C#N)cn(-c3ccc(C(C)C)cc3Br)c2n1` [Example 255] gave a melting point of 179.2 °C. Besides, the inhibition constant Ki at CRF receptor fell in the range of 501 to 2000 nM.

Consider `CCN(c1nc(C)cc(C)n1)c1ccccc1Br` [compound 5], for which the melting point was in the range of 94 to 95 °C. In addition, at CRF receptor, the Ki lay in the range of 501 to 2000 nM.

In turn, `CCCN(c1nc(C)cc(C)n1)c1ccc(C(C)C)cc1Br` [compound 196] registered a melting point of 150 to 151 °C. Moreover, the Ki at CRF receptor is below 500 nM.

With `CCN(c1nc(C)cc(C)n1)c1c(Br)cc(OC)cc1Br` [compound 226], the melting point is 101 to 103 °C. Besides, the Ki at CRF receptor was below 500 nM.

On to `CCc1cc(N2CCCCC2)nc(N(C)c2ccc(C(C)C)cc2Br)n1` [compound 194], for which the melting point was 211 to 212 °C. In addition, the inhibition constant Ki on CRF receptor was below 500 nM.

Regarding `CCN(c1nc(C)cc(C(=O)N2CCCCC2)n1)c1ccc(C(C)C)cc1Br` [compound 60], the melting point lay in the range of 107 to 108 °C. At CRF receptor, the inhibitory constant (Ki) was 501 to 2000 nM.

On to `CCN(c1nc(C)cc(C)n1)c1cc(Br)c(OC)cc1OC` [compound 253, N-(3-Bromo-4,6-dimethoxyphenyl)-N-ethyl-4,6-dimethyl-2-pyrimidinamine], for which the melting point lay within 143 to 145 °C. Besides, at CRF receptor, the Ki was 501 to 2000 nM.

For `CCN(c1nc(C)cc(C(=O)NCc2ccco2)n1)c1ccc(C(C)C)cc1Br` [compound 270], the melting point fell in the range of 87 to 88 °C. Moreover, the Ki at CRF receptor was in the range of 2000 to 10000 nM.

`CCN(c1nc(C)cc(C)n1)c1c(Cl)cc(OC)cc1OC` [compound 141] yielded a melting point of 99 to 102 °C. In addition, on CRF receptor, the inhibition constant Ki was below 500 nM.

Consider `CCN(c1nc(C)cc(C(=O)N(C)C)n1)c1ccc(C(C)C)cc1Br` [compound 282], for which the melting point lay in the range of 80 to 82 °C. In addition, the inhibition constant Ki on CRF receptor was below 500 nM.

As for `CCN(c1nc(C)cc(C(O)(c2ccc(OC)cc2)c2ccc(OC)cc2)n1)c1ccc(C(C)C)cc1Br` [compound 289], the melting point lay within 63 to 65 °C. In addition, at CRF receptor, the Ki is below 500 nM.

Regarding `CCN(c1nc(C)nc(OCc2ccccc2)n1)c1ccc(C(C)C)cc1Br` (as salt: hydrochloride) [compound 242, N-[2-bromo-4(1-methylethyl)phenyl]-N-ethyl-4-methyl-6-benzyloxy-1,3,5 triazin-2-amine], the melting point lay within 89 to 90 °C.

Regarding `Cc1cc(C)nc(N(C)c2ccc(C(C)(C)C)cc2Br)n1` (as salt: hydrochloride) [compound 11], the melting point lay within 193 to 195 °C.

What is called Ki is the equilibrium dissociation constant of an inhibitor or competing ligand from its target. One may read the melting point as the temperature of the solid-liquid transition.
